Literature values, collected in PubChem BioAssay AID1259410 (Chemical Carcinogenesis Research Information System (CCRIS), 2018).

Tested on: rodent tumor promotion studies, tumor incidence
Assay: CCRIS tumor promotion studies

## NC[C@@H]1O[C@H](O[C@H]2[C@@H](O)[C@H](O[C@@H]3[C@@H](O)[C@H](N)C[C@H](N)[C@H]3O[C@H]3O[C@H](CN)[C@@H](O)[C@H](O)[C@H]3N)O[C@@H]2CO)[C@H](N)[C@@H](O)[C@@H]1O
Carcinogen: AZOXYMETHANE, 25843-45-2, Doses [Carcinogen]: 8 MG/KG 1/WK FOR 8 WK, Doses [Promoter]: 0, 100, 200 PPM IN DRINKING WATER BEGINNING 2 WK PRIOR TO CARCINOGEN TREATMENT AND CONTINUING FOR DURATION OF STUDY (STU, Doses [Promoter]: 0, 100, 200 PPM IN DRINKING WATER BEGINNING 2 WK PRIOR TO CARCINOGEN TREATMENT AND CONTINUING FOR DURATION OF STUDY (STU, Route [Carcinogen]: SUBCUTANEOUS, Route [Promoter]: ORAL, Species: RAT, Strain/Sex: F344/FEMALE
  outcome: colon: adenocarcinoma

## C=C[C@@](C)(CCC=C(C)C)c1ccc2c3c(c[nH]c13)C[C@@H](CO)NC(=O)[C@H](C(C)C)N2C
Carcinogen: 7,12-DIMETHYLBENZ[A]ANTHRACENE, 57-97-6, Doses [Carcinogen]: 100 UG IN 0.1 ML ACETONE, Doses [Promoter]: 0, 3 UG IN 0.1 ML ACETONE 2/WK FOR 29 WK BEGINNING 1 WK POST CARCINOGEN DOSE (STUDY DURATION: 30 WK), Route [Carcinogen]: DERMAL, Route [Promoter]: DERMAL, Species: MOUSE
  outcome: skin: tumor
Carcinogen: DIMETHYLBENZ[A]ANTHRACENE, 57-97-6, Doses [Carcinogen]: 100 UG IN 100 µL ACETONE APPLIED TO THE BACK ONCE, Doses [Promoter]: 2.5 UG IN 100 µL ACETONE APPLIED TO THE BACK FOR 30 WK BEGINNING 1 WK POST CARCINOGEN DOSE (STUDY DURATION: 31 WK), Route [Carcinogen]: DERMAL, Route [Promoter]: DERMAL, Species: MOUSE, Strain/Sex: CD-1/FEMALE
  outcome: skin: papilloma

## O=[N+]([O-])c1ccc2ccc3cccc4ccc1c2c34
Carcinogen: POLYCHLORINATED BIPHENYLS, 1336-36-3, Doses [Carcinogen]: 2.5 MG/KG ONCE, Doses [Promoter]: 0, 1575 MG/KG IN DMSO ADMINISTERED IN 17 DOSES 3/WK BEGINNING POST CARCINOGEN TREATMENT (STUDY DURATION: 18 WK), Route [Carcinogen]: INTRAPERITONEAL, Route [Promoter]: INTRAPERITONEAL, Species: MOUSE, Strain/Sex: A/J/MALE
  outcome: lung: adenoma and adenocarcinoma

## O=C1C=CC(=O)c2c(O)cccc21
Carcinogen: 7,12-DIMETHYLBENZ[A]ANTHRACENE, 57-97-6, Doses [Carcinogen]: 25 NMOL IN 0.2 ML ACETONE ONCE, Doses [Promoter]: 440, 880, 1760 NMOL/MOUSE 1/WK FOR 40 WK BEGINNING 2 WK POST CARCINOGEN DOSE (STUDY DURATION: 42 WK), Doses [Promoter]: 440, 880, 1760 NMOL/MOUSE 1/WK FOR 40 WK BEGINNING 2 WK POST CARCINOGEN DOSE (STUDY DURATION: 42 WK), Route [Carcinogen]: DERMAL, Route [Promoter]: DERMAL, Species: MOUSE, Strain/Sex: SENCAR/FEMALE
  outcome: skin: papilloma
Carcinogen: 7,12-DIMETHYLBENZ[A]ANTHRACENE, 57-97-6, Doses [Carcinogen]: 25 NMOL IN 0.2 ML ACETONE ONCE, Doses [Promoter]: 1760 NMOL/MOUSE 2/WK FOR 40 WK BEGINNING 2 WK POST CARCINOGEN DOSE (STUDY DURATION: 42 WK), Route [Carcinogen]: DERMAL, Route [Promoter]: DERMAL, Species: MOUSE, Strain/Sex: SENCAR/FEMALE
  outcome: skin: papilloma
Carcinogen: 7,12-DIMETHYLBENZ[A]ANTHRACENE, 57-97-6, Doses [Carcinogen]: 25 NMOL IN 0.2 ML ACETONE ONCE, Doses [Promoter]: 1760 NMOL/MOUSE 3/WK FOR 40 WK BEGINNING 2 WK POST CARCINOGEN DOSE (STUDY DURATION: 42 WK), Route [Carcinogen]: DERMAL, Route [Promoter]: DERMAL, Species: MOUSE, Strain/Sex: SENCAR/FEMALE
  outcome: skin: papilloma
Carcinogen: 7,12-DIMETHYLBENZ[A]ANTHRACENE, 57-97-6, Doses [Carcinogen]: 25 NMOL IN 0.2 ML ACETONE ONCE, Doses [Promoter]: 1760 NMOL/MOUSE 3/WK FOR 60 WK BEGINNING 2 WK POST CARCINOGEN DOSE (STUDY DURATION: 60 WK), Route [Carcinogen]: DERMAL, Route [Promoter]: DERMAL, Species: MOUSE, Strain/Sex: SENCAR/FEMALE
  outcome: skin: carcinoma

## CC(=O)OCC(CO)OC(C)=O (configuration not stated)
Carcinogen: 4-Nitroquinoline 1-oxide, 56-57-5, Doses [Carcinogen]: 10 ppm in drinking water from wks 0-10, study duration 35 wk, Doses [Promoter]: 0, 2.75%, 5.5%, 11% in diet from wks 11-35, study duration 35 wks, Doses [Promoter]: 0, 2.75%, 5.5%, 11% in diet from wks 11-35, study duration 35 wks, Route [Carcinogen]: Oral, Route [Promoter]: Oral, Species: Rat, Strain/Sex: Sprague-Dawley/Male (30/Group)
  outcome: tongue: squamous cell papillomas and carcinomas; oral cavity: squamous cell papi
Carcinogen: 7,12-Dimethylbenz(a)anthracene, 57-97-6, Doses [Carcinogen]: 100 ug in 100 ul acetone once at 6 wk of age, Doses [Promoter]: 0, 12, 30, 75 mg, 5 d/wk beginning 1 wk after carcinogen administration for 35 wk, study duration 36 wk, Route [Carcinogen]: Dermal, Route [Promoter]: Dermal, Species: Mouse, Strain/Sex: ICR/Female
  outcome: skin: papillomas
Carcinogen: 7,12-Dimethylbenz(a)anthracene, 57-97-6, Doses [Carcinogen]: 100 ug in 100 ul acetone once at 6 wk of age, Doses [Promoter]: 0, 30, 75 mg, twice daily, 5 d/wk beginning 1 wk after carcinogen administration for 35 wk, study duration 36 wk, Route [Carcinogen]: Dermal, Route [Promoter]: Dermal, Species: Mouse, Strain/Sex: ICR/Female
  outcome: skin: papillomas and squamous cell carcinomas

## Cc1ccc(O)cc1
Carcinogen: 7,12-DIMETHYLBENZ(A)ANTHRACENE, Doses [Carcinogen]: TOP, Route [Carcinogen]: DERMAL, Route [Promoter]: DERMAL, Species: MOUSE, Strain/Sex: FEMALE
  outcome: integumentary system (skin)
